{"source": "patent US20160310445A1", "about": "“PREVENTION AND COUNTERACTION OF DIET-INDUCED THROMBOSIS RISK” (VITAK BV, priority 2013, published 2016)", "key": {"[1]": {"test_system": "uncarboxylated osteocalcin relative to total osteocalcin", "assay": "Vitamin K status by ucOC/tOC ratio in renal transplant recipients treated with menaquinone-7 (Experiment 5)", "assay_type": "in vivo, renal transplant recipients (human)", "description": "In yet a further aspect, vitamin K used according to the present invention is to be administered to specific groups of subjects. As already stated supra, mammalian subjects according to the invention are in particular human subjects. Vitamin K may, in the context of the invention, be administered to healthy or apparently healthy human subjects, preferably healthy or apparently healthy adult human subjects, which may benefit from vitamin K supplementation. In particular, these subjects are characterized in that they have a regular vitamin K status and a normal thrombosis risk, particularly a normal venous thrombosis risk. The vitamin K status may e.g. be determined using the ucOC/tOC ratio, i.e. the amount of circulating uncarboxylated osteocalcin (ucOC) relative to the total amount of osteocalcin (tOC). The vitamin K status may also be determined using other methods, e.g. the carboxylation degree of the vascular Gla-protein MGP, but since this assay is not yet commercially available, the ucOC/tOC ratio will be used throughout this document.\nIn the present study, a group of 32 RTR were randomly subdivided into 4 groups of 8 subjects each and compared with 24 age- and sex-matched healthy volunteers.\nThe RTR were treated with the following doses of vitamin K2 (menaquinone-7) for 3 months: 0, 90, 180 and 360 μg/day. Blood was taken at baseline and at the end of the study to prepare EDTA plasma and serum. Vitamin K status was assessed by measuring the ucOC/tOC ratio and the thrombosis tendency was estimated from the ETP values."}, "[2]": {"test_system": "Endogenous Thrombin Potential (thrombin generation in plasma)", "assay": "ETP in renal transplant recipients treated with menaquinone-7 (Experiment 5)", "assay_type": "in vivo, renal transplant recipients (human)", "description": "(§1) There are several ways in which thrombosis tendency or increased thrombosis risk may be established, but most of them are based on one of the two following principles: • a) Citrated plasma is collected by venipuncture and clotting is induced by adding tissue factor (thromboplastin) and recalcification. The time required to clot is compared to the clotting time of a reference sample and expressed as International Normalized Ratio (INR). This method is sensitive for monitoring patients during anticoagulation treatment (INR>2.0), but insensitive for INR values<1.0 (increased thrombosis risk). • b) Citrated plasma is collected by venipuncture, defibrinated and the conversion of prothrombin into thrombin is initiated by adding tissue factor and calcium. The total amount of thrombin generated in a certain time period is expressed as Endogenous Thrombin Potential (ETP), whereas also other kinetic characteristics (thrombin peak height, time to peak) provide additional information (E. De Smedt, R. Al Dieri, H. M. Spronk, K. Hamulyak, H. ten Cate, H. C. Hemker: Thromb. Haemost. 2008; 100:343-349).\n(§2) The ETP reflects the amount of thrombin that can be formed in a period of time following activation of platelet-poor plasma. The amount of thrombin generated is monitored using a chromogenic substrate for thrombin, and results from three independent principles: the circulating concentration of coagulation factors, the concentration of coagulation inhibitors (proteins C and S) and the concentration of thrombin inhibitors such as antithrombin III. Typical ETP curves show a rapid increase of thrombin formed in the first 6-8 minutes after activation, followed by a decline caused by thrombin inhibitors such as antithrombin III. […] Generally, the ETP is expressed as the area under the curve during the first 30 minutes of thrombin formation. […]\nThe RTR were treated with the following doses of vitamin K2 (menaquinone-7) for 3 months: 0, 90, 180 and 360 μg/day. […] Vitamin K status was assessed by measuring the ucOC/tOC ratio and the thrombosis tendency was estimated from the ETP values."}, "[3]": {"test_system": "Endogenous Thrombin Potential (thrombin generation in plasma)", "assay": "ETP at baseline and after one year of vitamin K1 by tertile of vitamin K status (Experiment 3)", "assay_type": "in vivo, postmenopausal women", "conditions": "1 mg/day, group with the highest ucOC/tOC ratio (0.20, n=19), only in this group", "description": "as §1, with “This method is sensitive for monitoring patients during anticoagulation treatment (INR>2.0), but insensitive for INR values<1.0 (increased thrombosis risk). • b) Citrated plasma is collected by venipuncture, defibrinated and the conversion of prothrombin into thrombin is initiated by adding tissue factor and calcium.” left out\nas §2, with “III.” for “III. Typical ETP curves show a rapid increase of thrombin formed in the first 6-8 minutes after activation, followed by a decline caused by thrombin inhibitors such as antithrombin III.”"}}, "data": [{"compound": "CC(C)=CCC/C(C)=C/CC/C(C)=C/CC/C(C)=C/CC/C(C)=C/CC/C(C)=C/CC/C(C)=C/CC1=C(C)C(=O)c2ccccc2C1=O", "note": "[menaquinone-7]", "values": [{"measurement": "change of ucOC/tOC ratio with dose", "setting": "[1]; 0, 90, 180 and 360 μg/day, 3 months, FIG. 5A", "result": "decreased in a dose-dependent way"}, {"measurement": "decline of ucOC/tOC ratio compared to baseline", "setting": "[1]; 180 and 360 μg/day, 3 months", "result": "statistically significant"}, {"measurement": "difference in ucOC/tOC ratio between the 0 μg/day and the 360 μg/day intake groups", "setting": "[1]; t=3 months", "result": "significant"}, {"measurement": "change of ETP with dose", "setting": "[2]; 0, 90, 180 and 360 μg/day, 3 months, FIG. 5B", "result": "decreased at increasing doses"}, {"measurement": "decline of ETP compared to baseline", "setting": "[2]; 180 and 360 μg/day, 3 months", "result": "statistically significant"}, {"measurement": "difference in ETP between the 0 μg/day and the 360 μg/day intake groups", "setting": "[2]; t=3 months", "result": "significant"}]}, {"compound": "CC1=C(C/C=C(\\C)CCC[C@H](C)CCC[C@H](C)CCCC(C)C)C(=O)c2ccccc2C1=O", "note": "[vitamin K1, phylloquinone]", "values": [{"measurement": "change of ETP after vitamin K supplementation", "setting": "[3]", "result": "declined significantly"}]}]}
